Data reported in US11345681B1, “Inhibitors of fibroblast growth factor receptor kinases” (Kinnate Biopharma Inc., priority 2020, dated 2022).

Target: Wild type FGFR2 (Homo sapiens (Human), UniProt P21802)
Assay: FGFR2 kinase assay (fluorescence-based microfluidic mobility shift assay)
Format: biochemical
Conditions: wild type FGFR2 0.06 nM, 100 μM ATP, 80 minutes at room temperature; class symbols

Chain of Wild type FGFR2 (P21802 22-821): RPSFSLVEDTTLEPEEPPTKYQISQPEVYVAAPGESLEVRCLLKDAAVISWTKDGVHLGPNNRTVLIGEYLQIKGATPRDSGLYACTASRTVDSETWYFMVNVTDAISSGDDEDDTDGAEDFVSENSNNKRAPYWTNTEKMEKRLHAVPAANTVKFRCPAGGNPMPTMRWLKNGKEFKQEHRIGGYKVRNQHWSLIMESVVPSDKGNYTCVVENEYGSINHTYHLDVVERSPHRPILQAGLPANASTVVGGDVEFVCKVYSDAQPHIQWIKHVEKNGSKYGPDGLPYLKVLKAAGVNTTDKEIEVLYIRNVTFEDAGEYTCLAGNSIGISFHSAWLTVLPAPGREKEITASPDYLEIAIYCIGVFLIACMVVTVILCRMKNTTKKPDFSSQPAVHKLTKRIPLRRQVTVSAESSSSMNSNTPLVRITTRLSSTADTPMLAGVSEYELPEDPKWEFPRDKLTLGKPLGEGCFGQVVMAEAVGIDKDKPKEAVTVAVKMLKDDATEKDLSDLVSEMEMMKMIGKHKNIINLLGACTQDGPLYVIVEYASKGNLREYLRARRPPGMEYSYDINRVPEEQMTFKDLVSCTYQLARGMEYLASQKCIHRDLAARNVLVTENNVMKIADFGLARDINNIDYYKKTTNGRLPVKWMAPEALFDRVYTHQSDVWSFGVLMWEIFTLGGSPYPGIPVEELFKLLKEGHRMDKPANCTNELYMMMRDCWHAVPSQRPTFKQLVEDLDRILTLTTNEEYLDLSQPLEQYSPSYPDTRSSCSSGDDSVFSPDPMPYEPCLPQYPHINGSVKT

SMILES | IC50 [nM]
C=CC(=O)N1C[C@@H](n2nc(C#Cc3c(F)ccc4c3cnn4C3CC3)c(C(N)=O)c2NC)C[C@@H]1COC [Example 287, 1-((3S,5R)-1-Acryloyl-5-(methoxymethyl)pyrrolidin-3-yl)-3-((1-cyclopropyl-5-fluoro-1H-indazol-4-yl)ethynyl)-5-(methylamino)-1H-pyrazole-4-carboxamide] | ≤ 100
C=CC(=O)N1C[C@@H](n2nc(C#Cc3cc4ncc(Cl)n4cc3F)c(C(N)=O)c2NC)C[C@@H]1COC [Example 290, 3-(2-{3-Chloro-6-fluoroimidazo[1,2-a]pyridin-7-yl}ethynyl)-1-[(3S,5R)-5-(methoxymethyl)-1-(prop-2-enoyl)pyrrolidin-3-yl]-5-(methylamino)pyrazole-4-carboxamide] | ≤ 100
